Measured values from PMC10447463, “Data-mining unveils structure–property–activity correlation of viral infectivity enhancing self-assembling peptides” (Nature Communications, 2023).
Values joined by “and” are separate entries in the source; they are usually repeats but may differ in a detail not shown here. Equal values may be shown once. Read-outs that look alike come from different tables or passages of the source.

Legend:
[1] = Turbidity, derived count rate of scattered light; format: physicochemical; conditions: for Count Rate: derived count rate of scattered light (turbidity); for Log10 Count Rate: turbidity, derived count rate of scattered light, data of Figure 2D
[2] = system: HIV-1 infection of TZM-bl cells; experiment: HIV-1 infectivity enhancement assay, β-galactosidase luminescence; format: cell-based; conditions: for Rel-EFC / Log10 Infection Rel EFC: 1.3 µM peptide; for Rel-EFC: infection relative to EF-C (QCKIKQIINMWQ = 1); for Log10 Infection Rel EFC: log10 of infection relative to EF-C; for Log Infectivity: Log10 infection relative to EF-C, asymmetric std dev errors; for Log Infectivity / Abs. Inf.: TZM-bl cells; for Log10 Infection Rel EF-C: HIV-1 infection of TZM-bl cells; for Log10 of Rel to EFC (Feb2021): Log10 of infection relative to EF-C, all peptides of FigS16; for Abs. Inf.: absolute HIV-1 infection signal, β-galactosidase luminescence
[3] = Turbidity, derived count rate of scattered light; format: physicochemical; conditions: for Count Rate / kcps: derived count rate of scattered light at 633 nm, 173°, from zeta-potential measurement, 0.1 mg/mL in 1 mM KCl after 1 d at 1 mg/mL in PBS, turbidity / microscopic aggregation, mean of triplicate
How it was run: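 One-day room-temperature aggregation at 1 mg/mL in PBS (pH 7.4) preceded measurement; samples then went into 1 mM KCl. Triplicates per sample, two independent experiments averaged.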

[4] = Zeta-potential measurement; format: physicochemical
How it was run: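 Dissolve peptide from DMSO (10 mg/mL stock) into PBS pH 7.4 to 1 mg/mL. Incubate 1 d, RT. Dilute in 1 mM KCl just before reading. Derive zeta potential from mobility (Smoluchowski).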

[5] = β-sheet content by ATR-FT-IR; format: physicochemical; conditions: Fig. S7 panel A; β-sheet content by ATR-FT-IR
Protocol: For ATR FT–IR spectroscopy measurements, 200 µL of the respective 1 mg/mL PNF solution was lyophilized and the resulting powder used for measurement. All spectra were recorded on a Bruker Tensor 27 spectrometer with a diamond crystal as ATR element (PIKE MiracleTM, spectral resolution 2 cm^-1). Every sample was measured with 64 scans. Data were analyzed with OriginLab software and calculation of β–sheet content was conducted according to a previous report. TEM. For TEM measurements 5 µL of PNF fibrils (1 mg/mL) were placed on copper grids coated with carbon and formvar layer (300 mesh, Plano GmbH). After 10 min incubation time, the grids were staining with 4% uranyl acetate solution for 2.5 min and washed with water. Measurements were performed on a Jeol 1400 electron microscope with 120 kV acceleration voltage. CR Assay. For the determination of the amount of peptide monomer converting into nanostructures the amine reactive dye fluorescamine was used analogous to a previous reported protocol. Briefly, 100 µL of the preformed PNF solution was centrifuged in a Vivaspin 500 tube (3 kDa MWCO) to separate fibers from free peptide monomer (16200 x g, 4 °C, 45 min). The filtrate and 100 μL of the non-filtered PNF sample were lyophilized and dissolved in 30 μL DMSO. 10 μL of the filtrate and non-filtered DMSO samples were submitted in a black UV Star® 384 microliter well–plates (Greiner bio–one) and 3 μL of the fluorescamine solution (10 mg/mL, DMSO) was added to measure the fluorescence enhancement. After 20 min of incubation at RT, fluorescence was recorded on an Infinite® M1000 PRO microplate reader (Tecan) at λem = 470 nm upon excitation at λex = 365 nm with 10 nm bandwidths and multiple reads per well (3×3). Measurements were repeated in triplicates and averaged with standard deviation. All values were calculated as n-fold fluorescence enhancement (DMSO only as a reference was set to 1). The conversion rate CR was defined according to the equation Eq. (3).3 CR=100−100×fluorescenceintensityfiltrate/fluorescenceintensityoriginal[%]

[6] = Fig. S7 panel A (plotted against β-sheet content)
[7] = Fig. S7 panel B (plotted against CR), rounded to two decimals
[8] = Log10 of infection rate relative to EF-C, Figure 3A source data
[9] = infection rate relative to EF-C, log10, data of Figure 2D
[10] = infection rate relative to EF-C, log10, source data of Figure 2C
[11] = Log10 of derived count rate of scattered light (turbidity)
[12] = log10 of derived count rate of scattered light (turbidity)
[13] = turbidity, Log10 of derived count rate of scattered light, Figure 3A source data
[14] = zeta potential of peptide assemblies
[15] = zeta-potential of peptide, source data of Figure 2C
[16] = zeta-potential of the peptide assemblies, mean, Figure 3A source data
[17] = logarithm of count rate in kcps

Row | Substance | Count Rate [1] | Log10 Count Rate [1] | Rel-EFC [2] | Log10 Infection Rel EFC [2] | Log Infectivity [2, 6] | Log Infectivity [2, 7] | Log10 Infection Rel EF-C [2, 8] | Log10 Infection Rel EF-C [2, 9] | Log10 Infection Rel EF-C [2, 10] | Log10 of Rel to EFC (Feb2021) [2] | Log10 Count Rate [3, 11] | Count Rate / kcps [3] | Log10 Count Rate [3, 12] | Log10 Count Rate [3, 13] | Zeta-Pot. [4, 14] | Zeta-Potential / mV [4, 15] | Zeta-Potential / mV [4, 16] | b -sheet / % [5] | Log10 Count Rate [3, 17] | also measured
1 | CKIKIQINM | 4228 | 3.626 | 1,59 | 0,2 | 0.2012 | 0.2 | 0.2 | 0.2012 | 0.2012 | 0.2 | 3.626 | 4228 kcps | 3.626 | 3.626 | 16.83 | 14.3 mV | 16.83 mV | 42.84% |  | 
2 | CKIKIQINMW | 4915 | 3.692 | 1,29 | 0,11 | 0.1122 |  | 0.11 | 0.1122 | 0.1122 | 0.11 | 3.692 | 4915 kcps | 3.692 | 3.692 |  | 18.43 mV | 18.3 mV | 42.9134% |  | Abs. Inf. [2]: 7253; Zeta-Pot. [4]: 18.3
3 | CKIKIQIRGD | 5777 | 3.762 | 0,33 | -0,48 | -0.4842 | -0.48 | -0.48 | -0.4842 | -0.4842 | -0.48 | 3.762 | 5777 kcps | 3.762 | 3.762 | 7.157 | 7.157 mV | 7.16 mV | 58.14% |  | 
4 | CKIKQII | 74.6 | 1.873 | 0,04 | -1,38 | -1.379 | -1.38 | -1.38 | -1.379 | -1.379 |  | 1.873 | 74 ± 27 kcps and 75 kcps | 1.873 | 1.873 | -3.83 | 5.568 mV | -3.83 mV | 25% | 1.873 | Abs. Inf. / RLU s-1 ([2]; absolute infection rate, peptide 1.3 µM on cells, virus preincubated 10 min with fibrils, read 3 days post infection, mean of triplicate): 796.7 RLU s-1; Abs. Infection at 0.26 µM ([2]; peptide 0.26 µM, mean of triplicate): 430; Zeta pot. / mV ([4]; 1 mg/mL in PBS pH 7.4 from 10 mg/mL DMSO stock, 1 d RT, 60 µL diluted in 600 µL 1 mM KCl, Zetasizer Nano ZS, Smoluchowski, mean of triplicate): -3.83 mV
5 | CKIKQIINMWQ | 8317 | 3.92 | 1,24 | 0,09 | 0.09484 | 0.09 | 0.09 | 0.09484 | 0.09484 | 0.09 | 3.92 | 8317 kcps | 3.92 | 3.92 | 13.4 | 10.55 mV | 13.4 mV | 51% | 3.92 | 
6 | CKIW | 3.2 | 0.5051 | 0,05 | -1,29 | -1.286 | -1.29 | -1.29 | -1.286 | -1.286 |  | 0.5051 | 3 kcps | 0.5051 | 0.5051 |  | -2.772 mV | -3.71 mV | 46.02% |  | Abs. Inf. [2]: 290; Zeta-Pot. [4]: -3.71
7 | CQFQFQF | 7929 | 3.899 | 0,35 | -0,45 | -0.4519 |  | -0.45 | -0.4519 | -0.4519 | -0.45 | 3.899 | 7929 kcps | 3.899 | 3.899 | -24.8 | -25.37 mV | -24.8 mV | 34.9% | 3.899 | 
